Results taken from patent publication US9023789B2, “Amylin analogs and pharmaceutical compositions thereof” (Novo Nordisk A/S, priority 2012, dated 2015).
Numbered stars: 1 amine (or outer) side, 2 acyl side, 3 side chain; on linkers, the order of the positions; unused ones are H or OH. Bridge positions count the residues as written; N and C are the ends. Side chains are listed from the residue outwards. Peptide text beside a SMILES is read from it. * marks the point of attachment. C20 diacid = O=C(O)CCCCCCCCCCCCCCCCCCC(=O)*; γGlu = O=C(O)[C@H](CCC(=O)[*:2])N[*:1]

Experiments:
[1] = biological target: T1, human calcitonin receptor (Homo sapiens, UniProt P30988); experiment: ASSAY (VII) binding to the human calcitonin receptor (SPA, 125I-Calcitonin); conditions: read-out: hCTR bind IC50;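 note: cell membranes (35 ng/µL) combined with SPA beads in 40 µL of pH 7.4 Hepes buffer, 384-well format, signal counted on a TopCounter instrument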
T1 construct: expressed in transfected cells
T1 sequence (P30988 25-474): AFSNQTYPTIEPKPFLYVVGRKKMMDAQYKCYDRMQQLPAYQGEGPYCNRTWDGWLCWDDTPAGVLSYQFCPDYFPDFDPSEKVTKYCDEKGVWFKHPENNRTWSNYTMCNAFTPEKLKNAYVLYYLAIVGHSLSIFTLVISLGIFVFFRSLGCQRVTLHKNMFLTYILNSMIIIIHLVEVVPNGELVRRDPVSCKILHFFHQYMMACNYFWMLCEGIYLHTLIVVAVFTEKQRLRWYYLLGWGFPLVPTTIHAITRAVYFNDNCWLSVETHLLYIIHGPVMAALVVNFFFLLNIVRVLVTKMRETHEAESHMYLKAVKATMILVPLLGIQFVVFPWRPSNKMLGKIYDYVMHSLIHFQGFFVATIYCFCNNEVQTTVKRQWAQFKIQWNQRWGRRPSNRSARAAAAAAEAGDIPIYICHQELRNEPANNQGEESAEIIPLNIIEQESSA

[2] = biological target: T2, human calcitonin (a) receptor in BHK570 cells (Homo sapiens, UniProt P30988); experiment: ASSAY (II)a functional assay, human calcitonin receptor (CRE luciferase); format: cell-based; conditions: read-out: hCTR funct. EC50
T2 construct: expressed in transfected cells
T2 sequence (P30988 25-474): T1 sequence (P30988 25-474)
Outline: (§1)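 BHK cells stably carrying a CRE-luciferase reporter plus calcitonin receptor, or calcitonin receptor with RAMP-3 for the amylin 3(a) receptor, were seeded and kept overnight at 37° C. Compounds were added in assay medium with 10% FBS and 10 mM Hepes, pH 7.4, for 3 hours at 37° C, then luminescence was counted.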

[3] = ASSAY (X) pK, determination of T½ in rat; format: in vivo; conditions: male, Sprague Dawley, plasma, iv, 20 nmol/kg
[4] = biological target: T3, human amylin 3(a) receptor (human calcitonin receptor + RAMP-3) in BHK570 cells (Homo sapiens, UniProt O60896+P30988); experiment: ASSAY (II)a functional assay, human amylin receptor (CRE luciferase); format: cell-based
T3 construct: expressed in transfected cells
T3 sequence (O60896 24-148, one chain of several): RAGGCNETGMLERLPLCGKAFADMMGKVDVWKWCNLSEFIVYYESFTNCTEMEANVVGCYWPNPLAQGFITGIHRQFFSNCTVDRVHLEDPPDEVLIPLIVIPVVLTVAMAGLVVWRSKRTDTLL
Outline: as §1

Male Wistar rats = experiment: ASSAY (XII) effect from single subcutaneous administration on plasma calcium in rats; format: in vivo, rat; conditions: for Plasma calcium red (%) 0-12 h (maximal): single s.c., compared to vehicle
Procedure: Assay (XII)—Effect from Single Subcutaneous Administration of Analogue on Plasma Calcium in Rats
Male Wistar rats (Taconic Europe, ˜250 g at test date) were acclimatized to handling prior to the study. Rats were divided in groups of five and subcutaneously dosed with test compound at time=0. At time T=−15 min; 1 h, 2 h, 4 h, 7 h, 12 h, and 24 h a blood sample was obtained and heparin stabilized plasma was analysed for total calcium (Cobas, Hitachi). Data are illustrated in graphs as mean±SEM.

Male Sprague-Dawley rats = experiment: ASSAY (XI) single subcutaneous administration, food intake monitored for 48 hours in rats; format: in vivo, rat; conditions: single s.c., compared to vehicle
Text: Assay (XI)—Effect from Single Subcutaneous Administration of Analogue on Plasma Calcium in Rats
Male Sprague-Dawley rats (Taconic Europe, ˜250 g at test date) were acclimatized to reversed day light cycle (lights on from 10 PM to 10 AM) and single housing in online food intake monitoring system (Ellegaard MBRose, Denmark) prior to study start. […] Data are illustrated in graphs as mean±SEM.

[5] = hCTR funct. EC50 divided by hAmylin-R funct. EC50
[6] = hCTR funct. EC50 over hAmylin-R funct. EC50
[7] = human functional selectivity: hCTR funct. EC50 / hAmylin-R funct. EC50

Structure (SMILES)	IC50 [1] [nM]	EC50 [2] [nM]	half-life [3] [h]	Ratio hCT/hAmylin funct. [4, 5]	Ratio hCT/hAmylin funct. [4, 6]	EC50 ([4]; human amylin receptor functional potency, assay (II), read-out: hAmylin-R funct. EC50) [nM]	Ratio hCT/hAmylin funct. [4, 7]	Plasma calcium red (%) 0-12 h (maximal) (Male Wistar rats; 100 nmol/kg) [%]	suppression of plasma calcium level relative to vehicle (Male Wistar rats; single subcutaneous 100 nmol/kg, monitored over 24 hours)	Food intake red (%) 0-24 h (Male Sprague-Dawley rats; 3 nmol/kg) [%]	Food intake red (%) 24-48 h (Male Sprague-Dawley rats; 3 nmol/kg) [%]	Food intake red (%) 0-24 h (Male Sprague-Dawley rats; 30 nmol/kg) [%]	Food intake red (%) 24-48 h (Male Sprague-Dawley rats; 30 nmol/kg) [%]	Plasma calcium red (%) 0-12 h (maximal) (Male Wistar rats; 10 nmol/kg) [%]	Plasma calcium red (%) 0-12 h (maximal) (Male Wistar rats; 30 nmol/kg) [%]
CC[C@H](C)[C@H](NC(=O)[C@H](C)NC(=O)CNC(=O)[C@H](Cc1ccccc1)NC(=O)[C@H](CC(N)=O)NC(=O)[C@@H]1CCCN1C(=O)[C@H](CO)NC(=O)[C@H](CO)NC(=O)[C@H](Cc1c[nH]cn1)NC(=O)[C@H](CCCNC(=N)N)NC(=O)[C@H](CC(C)C)NC(=O)[C@H](Cc1ccccc1)NC(=O)[C@H](CCCNC(=N)N)NC(=O)[C@H](C)NC(=O)[C@H](CC(C)C)NC(=O)[C@H](CCCNC(=N)N)NC(=O)[C@H](CCC(N)=O)NC(=O)[C@@H](NC(=O)[C@H](C)NC(=O)[C@@H]1CSSC[C@H](NC(=O)[C@@H](N)CCCCNC(=O)CC[C@H](NC(=O)CCCCCCCCCCCCCCCCCCC(=O)O)C(=O)O)C(=O)N[C@@H](CC(N)=O)C(=O)N[C@@H]([C@@H](C)O)C(=O)N[C@@H](C)C(=O)N[C@@H]([C@@H](C)O)C(=O)N1)[C@@H](C)O)C(=O)N1CCC[C@H]1C(=O)N[C@@H](CO)C(=O)N[C@@H](CO)C(=O)N[C@H](C(=O)N[C@@H](CC(N)=O)C(=O)N[C@H](C(=O)NCC(=O)N1CCC[C@H]1C(=O)N[C@@H](CC(N)=O)C(=O)N[C@H](C(=O)N[C@@H](Cc1ccc(O)cc1)C(N)=O)[C@@H](C)O)C(C)C)[C@@H](C)O [Example 65] (H-K([γGlu-C20 diacid])CNTATCATQRLARFLRHSSPNFGAIPSSTNVGPNTY-NH2; disulfide 2-7 (inferred); N-terminus assumed)	53.5	9.33	3	38.6	38.6	0.242	38.6								
CC[C@H](C)[C@H](NC(=O)[C@H](C)NC(=O)CNC(=O)[C@H](Cc1ccccc1)NC(=O)[C@H](CC(N)=O)NC(=O)[C@@H]1CCCN1C(=O)[C@H](CO)NC(=O)[C@H](CO)NC(=O)[C@H](Cc1c[nH]cn1)NC(=O)[C@H](CCCNC(=N)N)NC(=O)[C@H](CC(C)C)NC(=O)[C@H](Cc1ccccc1)NC(=O)[C@H](Cc1c[nH]cn1)NC(=O)[C@H](C)NC(=O)[C@H](CC(C)C)NC(=O)[C@H](CCCNC(=N)N)NC(=O)[C@H](CCC(N)=O)NC(=O)[C@@H](NC(=O)[C@H](C)NC(=O)[C@@H]1CSSC[C@H](NC(=O)[C@@H](N)CCCCNC(=O)CC[C@H](NC(=O)CCCCCCCCCCCCCCCCCCC(=O)O)C(=O)O)C(=O)N[C@@H](CC(N)=O)C(=O)N[C@@H]([C@@H](C)O)C(=O)N[C@@H](C)C(=O)N[C@@H]([C@@H](C)O)C(=O)N1)[C@@H](C)O)C(=O)N1CCC[C@H]1C(=O)N[C@@H](CO)C(=O)N[C@@H](CO)C(=O)N[C@H](C(=O)N[C@@H](CC(N)=O)C(=O)N[C@H](C(=O)NCC(=O)N1CCC[C@H]1C(=O)N[C@@H](CC(N)=O)C(=O)N[C@H](C(=O)N[C@@H](Cc1ccc(O)cc1)C(N)=O)[C@@H](C)O)C(C)C)[C@@H](C)O [Example 67] (H-K([γGlu-C20 diacid])CNTATCATQRLAHFLRHSSPNFGAIPSSTNVGPNTY-NH2; disulfide 2-7 (inferred); N-terminus assumed)			7	5.2			5.2								
CC[C@H](C)[C@H](NC(=O)[C@H](C)NC(=O)CNC(=O)[C@H](Cc1ccccc1)NC(=O)[C@H](CC(N)=O)NC(=O)[C@@H]1CCCN1C(=O)[C@H](CO)NC(=O)[C@H](CO)NC(=O)[C@H](Cc1c[nH]cn1)NC(=O)[C@H](CCCNC(=N)N)NC(=O)[C@H](CC(C)C)NC(=O)[C@H](Cc1ccccc1)NC(=O)[C@H](CC(=O)O)NC(=O)[C@H](C)NC(=O)[C@H](CC(C)C)NC(=O)[C@H](CCCNC(=N)N)NC(=O)[C@H](CCC(N)=O)NC(=O)[C@@H](NC(=O)[C@H](C)NC(=O)[C@@H]1CSSC[C@H](NC(=O)[C@@H](N)CCCCNC(=O)CC[C@H](NC(=O)CC[C@H](NC(=O)CCCCCCCCCCCCCCCCCCC(=O)O)C(=O)O)C(=O)O)C(=O)N[C@@H](CC(N)=O)C(=O)N[C@@H]([C@@H](C)O)C(=O)N[C@@H](C)C(=O)N[C@@H]([C@@H](C)O)C(=O)N1)[C@@H](C)O)C(=O)N1CCC[C@H]1C(=O)N[C@@H](CO)C(=O)N[C@@H](CO)C(=O)N[C@H](C(=O)N[C@@H](CC(N)=O)C(=O)N[C@H](C(=O)NCC(=O)N[C@@H](CO)C(=O)N[C@@H](CC(=O)O)C(=O)N[C@H](C(=O)N[C@@H](Cc1ccc(O)cc1)C(N)=O)[C@@H](C)O)C(C)C)[C@@H](C)O [Example 2] (H-K([γGlu-γGlu-C20 diacid])CNTATCATQRLADFLRHSSPNFGAIPSSTNVGSDTY-NH2; disulfide 2-7; N-terminus assumed)			28	16.4	16.4		16.4	9	does not trigger a notable suppression of the calcium level	39	10	72	62		
CC[C@H](C)[C@H](NC(=O)[C@H](C)NC(=O)CNC(=O)[C@H](Cc1ccccc1)NC(=O)[C@H](CC(N)=O)NC(=O)[C@@H]1CCCN1C(=O)[C@H](CO)NC(=O)[C@H](CO)NC(=O)[C@H](Cc1c[nH]cn1)NC(=O)[C@H](CCCNC(=N)N)NC(=O)[C@H](CC(C)C)NC(=O)[C@H](Cc1ccccc1)NC(=O)[C@H](CCC(=O)O)NC(=O)[C@H](C)NC(=O)[C@H](CC(C)C)NC(=O)[C@H](CCCNC(=N)N)NC(=O)[C@H](CCC(N)=O)NC(=O)[C@@H](NC(=O)[C@H](C)NC(=O)[C@@H]1CSSC[C@H](NC(=O)[C@@H](N)CCCCNC(=O)CC[C@H](NC(=O)CC[C@H](NC(=O)CCCCCCCCCCCCCCCCCCC(=O)O)C(=O)O)C(=O)O)C(=O)N[C@@H](CC(N)=O)C(=O)N[C@@H]([C@@H](C)O)C(=O)N[C@@H](C)C(=O)N[C@@H]([C@@H](C)O)C(=O)N1)[C@@H](C)O)C(=O)N1CCC[C@H]1C(=O)N[C@@H](CO)C(=O)N[C@@H](CO)C(=O)N[C@H](C(=O)N[C@@H](CC(N)=O)C(=O)N[C@H](C(=O)NCC(=O)N1CCC[C@H]1C(=O)N[C@@H](Cc1c[nH]cn1)C(=O)N[C@H](C(=O)N[C@@H](Cc1ccc(O)cc1)C(N)=O)[C@@H](C)O)C(C)C)[C@@H](C)O [Example 124] (H-K([γGlu-γGlu-C20 diacid])CNTATCATQRLAEFLRHSSPNFGAIPSSTNVGPHTY-NH2; disulfide 2-7 (inferred))				16.4	16.4		16.4					73	38	3	11
